The source of these data is patent US4221794A, “Method of imparting immunomodulating and antiviral activity” (Newport Pharmaceuticals International, Inc., priority 1979, dated 1980).

Experiment [1] has as its system influenza virus. In words: microbe, parasite or virus in culture. It is filed as cell-based, influenza virus Type A/USSR 90 (HeLa cell cultures). The conditions noted are these: for inhibition at 100 µg/mL: read-out: % Inhibition of Hemadsorption Foci, Test Compound Conc. >100 μg/ml.
A further experiment deals with mouse lymphocytes. In words: Mitogen (Con A) induced mouse lymphocyte (spleen cell) proliferation. It is filed as cell-based. The conditions noted are these: plus = immunostimulating, minus = immunoinhibiting, 0 = neither. The source says:
The following three assay procedures are used to evaluate the ability of the test substances to modulate the activity of several classes of cells in the immune system. In these systems it is possible to identify both immunopotentiating activity (evidence by an enhancement of the parameter examined) as well as immunosuppressant activity (evidenced by an inhibition of the parameter examined).
1. Mitogen-Induced Mouse Spleen Cell Assay
Mouse spleen cells contain a population of both B and T lymphocytes which can be stimulated by a number of foreign substances (e.g., plant mitogens such as Con A) to proliferate. This enhanced proliferation is an indication of enhanced cell mediated immunity. The method below describes the system used to evaluate test substances as immunopotentiators.
Concanavalin A (Calbiochem, La Jolla, California), Lot #210073, lyophilized in NaCl, was prepared first as a 1% solution and diluted as a 2×concentration for each dilution (0.5, 1.0, 2.5 μg/ml).
Six to eight week old male Balb/c and C3 H inbred mice were obtained from the following sources: Flow Research Animals, Inc., Dublin, Virginia; Charles River Breeding Laboratories, Wilmington, Massachusetts; Laboratory Supply Company, Indianapolis, Indiana; and Lionel Strong Foundation, San Diego, California.
Three to five mice were sacrificed by cervical dislocation and the spleens aseptically removed. Pooled spleens were minced and teased with sterile forceps; then strained through a double layer of nylon mesh. The cell suspension was washed once with 15 ml of RPMI 1640 supplemented with 5% fetal calf serum and antibiotics. Cells were cultured at a concentration of 10^6 cells/0.1 ml/well in micro-plates. Cultures were incubated in the presence or absence of mitogen in a humidified atmosphere containing 5% CO2 for 48 hours. The test compound was added to cultures at various concentrations concommitant with mitogen.
Proliferation was assayed by the degree of incorporation of 1.0 μCi of [^3 H] thymidine over an 18 hour incubation period. Cultures were harvested by a MASH unit (Otto Hiller Co., Madison, Wisconsin) and thymidine incorporation was assayed by liquid scintillation spectrometry. Cultures were performed in triplicate and data are expressed as means plus or minus the standard error of the experimental means. Drug stimulation indices over control values were also calculated and portrayed graphically.
(§1) Table 4 above presents the results of an evaluation of a number of these subject compounds as potentiators of the immune response. Three different test systems were used. The first involves a measure of the ability of the test compound to enhance the ability of mouse lymphocytes to proliferate in response to a plant mitogen (Con A). The second involves measuring the ability of the test compounds to enhance human lymphocyte proliferation in response to a second plant mitogen (PHA). The third system measures the ability of these test substances to enhance macrophage proliferation in response to a natural lymphokine (MMF, Macrophage Mitogenic Factor).

Experiment [2] deals with human peripheral blood lymphocytes. In words: Mitogen (PHA) induced human lymphocyte proliferation. It counts as cell-based. The conditions noted are these: plus = immunostimulating, minus = immunoinhibiting, 0 = neither.
The subject of experiment [3] is influenza virus. As to the kind of experiment: Anti-influenza activity (overall). It is filed as cell-based, several strains of A and B sub-types.
The subject of the next experiment is guinea pig macrophages. In words: Lymphokine (MMF) induced guinea pig macrophage proliferation. It counts as cell-based. Particulars: plus = immunostimulating, minus = immunoinhibiting, 0 = neither. On the procedure:
3. The macrophage represents a subpopulation of white blood cells which is an important component of the immune system in control of both cellular and humoral immunity. The assay system described below evaluates the substances studied as potentiators of macrophage function.
Phytohemagglutinin (PHA) (HA-17) was purchased from Burroughs Wellcome. A preparation containing Macrophage Mitogen Factor (MMF) and Macrophage Activating Factor (MAF) was prepared from antigen-stimulated immune lymph node lymphocytes (guinea pig) as previously described by Hadden et al, Nature 257, 483-485 (1975). […] The active fraction was employed in both the proliferation and activation assays.
Ficoll-hypaque purified human peripheral blood lymphocytes were prepared and PHA-induced lymphocyte proliferation was assayed by the incorporation of tritiated thymidine as described in Hadden et al., Cell. Immunol. 20, 98-103 (1975). Each compound was analyzed in the presence of suboptimal, optimal and supraoptimal concentrations of PHA (0.001, 0.01, 0.1 units/ml respectively). Paraffin oil-induced guinea pig peritoneal macrophages were prepared and incubated as monolayer culture (>98% pure macrophages). Lymphokine (MMF)-induced proliferation was assayed by the incorporation of tritiated thymidine at 3 and 5 days of culture as described, Hadden et al, Nature 257, 483-485 (1975). Lymphokine (MAF)-induced macrophage activation to kill Listeria monocytogenes following 5 days of culture in the presence or absence of MAF was performed during a 6 hour period as described in Hadden and England, Immunopharmacology, pages 87-100 (Plenum Press, 1977). Phagocytosis was quantitated during a 20-minute exposure to Listeria monocytogenes by counting the number of macrophages containing bacteria and the number of bacteria per phagocytic cell on gram stained monolayers in Labtek chambers. Intracellular killing of bacteria was evaluated by counting the number of cells containing bacteria and the number of bacteria/cell 6 hours after the initial 20 minute exposure. Parallel experiments in which macrophages were lysed and intracellular bacteria were cultured confirm the validity of bacterial activity determined by this manner in this system. The drugs were employed in each of the three systems over serial log concentration range in triplicate in the presence and absence of mitogen or lymphokine. Each type of experiment was performed at least three times. Previous experiments indicate a parallelism of response to pharmacologic modulation in the proliferation and achivation assays.
as §1

Like-named read-outs stand apart in the source and are kept apart here.

On to `CC(CO)n1cnc2c(Cl)ncnc21` (stereo not drawn) [NPT 15423, 9-(1-HYDROXY-2-PROPANE)-6-CHLOROPURINE], for which the inhibition at 10 µg/mL in the experiment on influenza virus [1] (unidentified influenza virus, read-out: % Inhibition of Hemadsorption Foci, Test Compound Conc. <10 μg/ml) was determined as 2%. In the experiment with influenza virus [1] (unidentified influenza virus), the inhibition at 100 µg/mL was 6%.

Regarding `O=c1[nH]cnc2c1ncn2CCO` [NPT 15425, 9-HYDROXYETHYL HYPOXANTHINE], the “Maximum Percent Change, Mitogen Induced (Con A) Mouse Lymph. Prolif.” value with mouse lymphocytes (1.0-10 (unit not given)) came out at 0%; in the experiment with mouse lymphocytes (.01-1.0 (unit not given)), 11%. Moreover, the entries for the “Maximum Percent Change, Mitogen Induced (PHA) Human Lymph. Prolif.” value in experiment [2] (1.0-10 (unit not given)), in experiment [2] (10-100 (unit not given)) and in experiment [2] (.01-1.0 (unit not given)) were 0%, 0% and 100%, respectively.

In the case of `CC(O)Cn1cnc2c(N)ncnc21` (stereo not drawn) [NPT 15431, 9-(2-HYDROXY-1-PROPYL)ADENINE], the “% Inhibition of Hemadsorption Foci” value in the experiment on influenza virus [1] (Test Compound Conc. >100 μg/ml, listed as 15431) is 0%. The “Maximum Percent Change, Mitogen Induced (Con A) Mouse Lymph. Prolif.” value with mouse lymphocytes (1.0-10 (unit not given)) is -27%; with mouse lymphocytes (10-100 (unit not given)), -47%; in the experiment on mouse lymphocytes (.01-1.0 (unit not given)), -15%. Also, the “Maximum Percent Change, Mitogen Induced (PHA) Human Lymph. Prolif.” value in experiment [2] (1.0-10 (unit not given)), in experiment [2] (10-100 (unit not given)) and in experiment [2] (.01-1.0 (unit not given)) was 0% each time.

In the case of `CC(O)Cn1cnc2c(N)ncnc21` (stereo not drawn) [NPT 15432], in the experiment with influenza virus [1] (Test Compound Conc. >100 μg/ml, listed as 15432), the “% Inhibition of Hemadsorption Foci” value came out at 62%. For the same compound, in the experiment with influenza virus [3], the “potentiation of anti-influenza activity by DIP.PAcBA salt” value (“potentiation of anti-influenza activity” below) is on record as “Yes”.

On to `CC(CO)n1cnc2c(N)ncnc21` (stereo not drawn) [NPT 15433, 9-(1-HYDROXY-2-PROPYL)ADENINE], for which the “% Inhibition of Hemadsorption Foci” value in the experiment with influenza virus [1] (Test Compound Conc. >100 μg/ml, listed as 15433) was 0%. For the same compound, the “Maximum Percent Change, Mitogen Induced (Con A) Mouse Lymph. Prolif.” value in the experiment with mouse lymphocytes (1.0-10 (unit not given)) is on record as -23%; with mouse lymphocytes (10-100 (unit not given)), -65%; with mouse lymphocytes (.01-1.0 (unit not given)), “+15%”. Moreover, the results for the “Maximum Percent Change, Mitogen Induced (PHA) Human Lymph. Prolif.” value in experiment [2] (1.0-10 (unit not given)), in experiment [2] (10-100 (unit not given)) and in experiment [2] (.01-1.0 (unit not given)) were 0%, -50% and 53%, respectively.

Regarding `CC(CO)n1cnc2c(N)ncnc21` (stereo not drawn) [NPT 15434], the “% Inhibition of Hemadsorption Foci” value in the experiment with influenza virus [1] (Test Compound Conc. >100 μg/ml, listed as 15434) is reported as 62%. In the experiment with influenza virus [3], the “potentiation of anti-influenza activity” value is on record as “Yes”.

Take `OCCn1cnc2c(=S)[nH]cnc21` [NPT 15435]: the inhibition at 100 µg/mL in the experiment on influenza virus [1] (unidentified influenza virus) was 10%. The “Maximum Percent Change, Mitogen Induced (PHA) Human Lymph. Prolif.” value in experiment [2] (1.0-10 (unit not given)) is recorded as 45%; in experiment [2] (10-100 (unit not given)), -50%; in experiment [2] (.01-1.0 (unit not given)), 55%.

`OCCn1cnc2c(S)ncnc21` [NPT 15437]: the inhibition at 100 µg/mL with influenza virus [1] (unidentified influenza virus) was determined as 65%. In addition, the “potentiation of anti-influenza activity” value with influenza virus [3] is “Yes”.

With `CC(CO)n1cnc2c(=O)[nH]cnc21` (stereo not drawn) [NPT 15443, 9-(1-HYDROXY-2-PROPYL)HYPOXANTHINE], the “% Inhibition of Hemadsorption Foci” value in the experiment with influenza virus [1] (Test Compound Conc. >100 μg/ml, listed as 15443) is listed as 0%. In addition, the “Maximum Percent Change, Mitogen Induced (Con A) Mouse Lymph. Prolif.” value is “+27%” in the experiment with mouse lymphocytes (1.0-10 (unit not given)), “+27%” in the experiment on mouse lymphocytes (10-100 (unit not given)) and “+17%” in the experiment on mouse lymphocytes (.01-1.0 (unit not given)). Further, the results for the “Maximum Percent Change, Mitogen Induced (PHA) Human Lymph. Prolif.” value in experiment [2] (1.0-10 (unit not given)), in experiment [2] (10-100 (unit not given)) and in experiment [2] (.01-1.0 (unit not given)) were “+13%”, 0% and 0%, respectively. In addition, the “Maximum Percent Change, Lymphokine Induced (MMF) Guinea Pig Mac. Prolif.” value is reported as 0% in the experiment with guinea pig macrophages (1.0-10 (unit not given)) and “+20%” with guinea pig macrophages (.01-1.0 (unit not given)).

With `CC(CO)n1cnc2c(=O)[nH]cnc21` (stereo not drawn) [NPT 15444], the “% Inhibition of Hemadsorption Foci” value in the experiment with influenza virus [1] (Test Compound Conc. >100 μg/ml, listed as 15444) turned out to be 54%. Also, in the experiment on influenza virus [3], the “potentiation of anti-influenza activity” value is recorded as “Yes”.

On to `CC(O)Cn1cnc2c(=O)[nH]cnc21` (stereo not drawn) [NPT 15446, 9-(2-HYDROXY-1-PROPYL)HYPOXANTHINE], for which the “% Inhibition of Hemadsorption Foci” value in the experiment on influenza virus [1] (Test Compound Conc. <10 μg/ml, listed as 15446) is listed as 2%; in the experiment with influenza virus [1] (Test Compound Conc. >100 μg/ml, listed as 15446) it was 0%. The “Maximum Percent Change, Mitogen Induced (Con A) Mouse Lymph. Prolif.” value in the experiment with mouse lymphocytes (1.0-10 (unit not given)) was found to be 12%; in the experiment on mouse lymphocytes (10-100 (unit not given)), 0%; in the experiment on mouse lymphocytes (.01-1.0 (unit not given)), 6%. For the same compound, the “Maximum Percent Change, Mitogen Induced (PHA) Human Lymph. Prolif.” value in experiment [2] (1.0-10 (unit not given)), in experiment [2] (10-100 (unit not given)) and in experiment [2] (.01-1.0 (unit not given)) was 0% each time. Besides, the “Maximum Percent Change, Lymphokine Induced (MMF) Guinea Pig Mac. Prolif.” value with guinea pig macrophages (1.0-10 (unit not given)), in the experiment with guinea pig macrophages (10-100 (unit not given)) and in the experiment with guinea pig macrophages (.01-1.0 (unit not given)) was 0% in each case.

Turning to `CC(O)Cn1cnc2c(=O)[nH]cnc21` (stereo not drawn) [NPT 15447], the “% Inhibition of Hemadsorption Foci” value in the experiment with influenza virus [1] (Test Compound Conc. <10 μg/ml, listed as 15447) is 10%; in the experiment on influenza virus [1] (Test Compound Conc. >100 μg/ml, listed as 15447), 34%. In the experiment on influenza virus [3], the “potentiation of anti-influenza activity” value is “Yes”.

On to `CC(=O)Nc1ccc(C(=O)O)cc1.CC(O)CN(C)C` [compound 15110, dimethylamino-2-propanol-p-acetamido benzoate, reference compound], for which the “% Inhibition of Hemadsorption Foci” value in the experiment with influenza virus [1] is recorded as 0%.
